Tests used:
porcine liver esterase = assay: In vitro release of morphine from pro-drug with porcine liver esterase (HPLC); type: in vitro ADME; conditions: 20 μM, porcine liver esterase 0.01 U, phosphate buffer pH 7.0, 2 and 16 hours
Experimental: [drawing 26] was incubated with porcine liver esterase (Sigma, 0.01 U) in 20 mM phosphate buffer pH 7.0 for 2 and 16 hours. At the end of the time periods the samples were frozen at −20° C. and were thawed prior to loading onto the HPLC column.

Male Hartley guinea pigs = assay: Randall & Selitto paw pressure analgesia test in guinea pig; type: in vivo; conditions: pain threshold at 60, 150, 240 and 360 min after administration
Excerpt: Male Hartley guinea pigs (375-475 g) from Elm Hill labs were allowed free access to food and water before being used in the testing of analgesia effects free morphine, morphine complex, and morphine prodrug A complex
The Randall & Selitto test apparatus (Harvard Instruments) is used to measure analgesia and is based on determination of the animal threshold response to pain induced in the paw by the application of a uniformly increasing pressure from a conical tip upon the dorsal surface of the rear paw which rests on a platform. The weight in grams is taken upon withdrawal of the animals paw from the platform with five repeated measurements of pain threshold recorded for each time point (control, 60, 150, 240, and 360 min) after drug administration. Values are normalized to control and the mean±SEM for each time point are recorded. To reduce tissue damage to the animal a weight limit is used for all animals.

solid tumors = conditions: cited from earlier work

SMILES	release of morphine from pro-drug (porcine liver esterase)	analgesia / release of morphine in vivo (Male Hartley guinea pigs)	in vivo activity in solid tumor models (solid tumors)
CN1CC[C@]23c4c5ccc(OC(=O)CCC(=O)OC(C)(C)C)c4O[C@H]2[C@@H](O)C=C[C@H]3[C@H]1C5 [Pro-drug A]	sustained release of morphine	sustained release of morphine	
N.N.[Cl][Pt][Cl] [cisplatin]			no effect

From US8980907B2, “Dendrimer conjugates” (The Regents of the University of Michigan, priority 2008, dated 2015)
